Results on six compounds are retold here after patent US20090264425A1, “CHEMICAL COMPOUNDS” (PFIZER LIMITED, priority 2004, published 2009).

Each structure is given as a SMILES string.

One may read the IC50 as the concentration at which inhibition is half-maximal.

In the experiment the target is T1, HIV-1 reverse transcriptase (Human immunodeficiency virus type 1 group M subtype B, UniProt P04585).
T1 construct: purified recombinant HIV-1 reverse transcriptase (RT, EC, 2.7.7.49); made in house; host or cells: Escherichia coli
The experiment in a line: Inhibition of HIV-1 reverse transcriptase enzyme ([3H]-Flashplate enzyme assay, 384-well). Type of experiment: biochemical. Conditions: purified recombinant HIV-1 RT expressed in Escherichia Coli; 5% final DMSO. The text has this: The activity of the compounds of the invention as reverse transcriptase inhibitors may be measured using the following assay.
Inhibition of HIV-1 Reverse Transcriptase Enzyme
The reverse transcriptase activity of the compounds of the invention may be assayed as follows. Using the purified recombinant HIV-1 reverse transcriptase (RT, EC, 2.7.7.49) obtained by expression in Escherichia Coli, a 384-well plate assay system was established for assaying a large number of samples using the [3H]-Flashplate enzyme assay system (NEN-SMP 410A) following the manufacturer's recommendations. The compounds were dissolved in 100% DMSO and diluted with the appropriate buffer to a 5% final DMSO concentration. The inhibitory activity was expressed in percent inhibition relative to the DMSO control.

`Cc1nc(S(N)(=O)=O)ccc1NC(=O)COc1ccc(Cl)cc1Sc1cc(Cl)cc(C#N)c1` [Example 46, N-[6-(Aminosulfonyl)-2-methylpyridin-3-yl]-2-{4-chloro-2-[(3-chloro-5-cyanophenyl)thio]phenoxy}acetamide]: the IC50 came out at 27.7 nM. Consider `N#Cc1cc(Cl)cc(Oc2cc(Cl)ccc2OCC(=O)N2CCCc3cc(S(N)(=O)=O)ccc32)c1` [Example 1, 1-{[4-Chloro-2-(3-chloro-5-cyanophenoxy)phenoxy]acetyl}-1,2,3,4-tetrahydroquinoline-6-sulfonamide], for which the IC50 came to 26.1 nM. Under `Cc1cc(CN(C)C(=O)COc2cc(Cl)ccc2Oc2cc(Cl)cc(C#N)c2)on1` [Example 25] stands 2180 nM; under `Cc1cnccc1NC(=O)COc1cc(Cl)ccc1Oc1cc(Cl)cc(C#N)c1` [Example 50], 5.68 nM; under `N#Cc1cc(Cl)cc(Oc2cc(Cl)ccc2OCC(=O)Nc2ccc(S(N)(=O)=O)cc2Cl)c1` [Example 9, N-[4-(Aminosulfonyl)-2-chlorophenyl]-2-[4-chloro-2-(3-chloro-5-cyanophenoxy)phenoxy]acetamide], 6 nM. With `N#Cc1cc(Cl)cc(Oc2cc(Cl)ccc2OCC(=O)N2CCc3ccc(S(=O)(=O)N4CCOCC4)cc3C2)c1` [Example 16] the figure was 541 nM.
